From paper PMC3961306, “Comparison of the Cancer Gene Targeting and Biochemical Selectivities of All Targeted Kinase Inhibitors Approved for Clinical Use” (PLoS ONE, 2014) come the findings set out here.

Holding throughout (assay): Kinase profiling in a biochemical assay panel (mobility shift assays and ELISA), %-inhibition at 1 μM; selectivity entropy
On the technique in general: In an ELISA, binding on a coated surface is turned into a signal by an enzyme label.

Assay [1] addresses panel of more than 300 wild-type and mutant kinases (313 kinase panel) (Homo sapiens, UniProt O75116). Conditions: kinase ROCK2; 1 μM.
Assay [2] addresses panel of more than 300 wild-type and mutant kinases (313 kinase panel) (Homo sapiens, UniProt P16234, V561D). Conditions: kinase PDGFRα(V561D); 1 μM.
Assay [3] concerns the target panel of more than 300 wild-type and mutant kinases (313 kinase panel) (Homo sapiens, UniProt P30291). Conditions: kinase WEE1; compound at 1 μM.
Assay [4] deals with T1, panel of more than 300 wild-type and mutant kinases (313 kinase panel) (Homo sapiens, UniProt P54760).
T1 sequence (P54760 16-987): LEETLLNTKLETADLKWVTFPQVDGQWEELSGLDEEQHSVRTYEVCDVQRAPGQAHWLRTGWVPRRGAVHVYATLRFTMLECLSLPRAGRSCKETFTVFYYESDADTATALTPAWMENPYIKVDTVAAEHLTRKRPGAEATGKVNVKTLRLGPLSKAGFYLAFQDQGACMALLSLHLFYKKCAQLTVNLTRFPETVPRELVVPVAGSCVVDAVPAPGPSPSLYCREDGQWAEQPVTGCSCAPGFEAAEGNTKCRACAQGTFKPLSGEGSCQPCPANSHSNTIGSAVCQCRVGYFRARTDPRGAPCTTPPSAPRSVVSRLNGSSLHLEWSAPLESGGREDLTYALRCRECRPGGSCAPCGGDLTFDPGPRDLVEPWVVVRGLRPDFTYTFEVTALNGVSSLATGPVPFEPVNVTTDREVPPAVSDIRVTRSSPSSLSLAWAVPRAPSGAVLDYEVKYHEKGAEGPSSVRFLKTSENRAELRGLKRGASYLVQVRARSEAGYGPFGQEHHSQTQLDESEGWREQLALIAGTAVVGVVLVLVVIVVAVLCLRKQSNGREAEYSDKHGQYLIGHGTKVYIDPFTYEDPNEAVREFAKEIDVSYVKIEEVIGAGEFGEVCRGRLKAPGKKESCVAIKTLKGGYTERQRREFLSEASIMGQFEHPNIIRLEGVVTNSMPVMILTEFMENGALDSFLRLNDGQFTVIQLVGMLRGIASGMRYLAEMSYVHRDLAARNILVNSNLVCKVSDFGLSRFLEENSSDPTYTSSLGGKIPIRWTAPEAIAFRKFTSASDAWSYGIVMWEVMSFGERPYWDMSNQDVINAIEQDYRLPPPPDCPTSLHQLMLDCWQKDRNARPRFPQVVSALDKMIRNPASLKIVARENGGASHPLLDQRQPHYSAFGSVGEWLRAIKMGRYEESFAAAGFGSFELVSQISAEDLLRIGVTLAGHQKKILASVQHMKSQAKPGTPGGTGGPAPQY
To be noted: kinase EPHB4; compound at 1 μM.

Assay [5] addresses panel of more than 300 wild-type and mutant kinases (313 kinase panel) (Homo sapiens, UniProt Q07912). Conditions: kinase ACK; 1 μM compound.
Assay [6] has as its target panel of more than 300 wild-type and mutant kinases (313 kinase panel) (Homo sapiens, UniProt Q16644). Conditions: kinase MAPKAPK3; compound at 1 μM.
In assay [7] the target is panel of more than 300 wild-type and mutant kinases (313 kinase panel) (Homo sapiens, UniProt Q9NYA1). To be noted: kinase SPHK1; 1 μM.

Chain of panel of more than 300 wild-type and mutant kinases (313 kinase panel) (Homo sapiens, UniProt Q07912) (Q07912 whole entry, change not shown): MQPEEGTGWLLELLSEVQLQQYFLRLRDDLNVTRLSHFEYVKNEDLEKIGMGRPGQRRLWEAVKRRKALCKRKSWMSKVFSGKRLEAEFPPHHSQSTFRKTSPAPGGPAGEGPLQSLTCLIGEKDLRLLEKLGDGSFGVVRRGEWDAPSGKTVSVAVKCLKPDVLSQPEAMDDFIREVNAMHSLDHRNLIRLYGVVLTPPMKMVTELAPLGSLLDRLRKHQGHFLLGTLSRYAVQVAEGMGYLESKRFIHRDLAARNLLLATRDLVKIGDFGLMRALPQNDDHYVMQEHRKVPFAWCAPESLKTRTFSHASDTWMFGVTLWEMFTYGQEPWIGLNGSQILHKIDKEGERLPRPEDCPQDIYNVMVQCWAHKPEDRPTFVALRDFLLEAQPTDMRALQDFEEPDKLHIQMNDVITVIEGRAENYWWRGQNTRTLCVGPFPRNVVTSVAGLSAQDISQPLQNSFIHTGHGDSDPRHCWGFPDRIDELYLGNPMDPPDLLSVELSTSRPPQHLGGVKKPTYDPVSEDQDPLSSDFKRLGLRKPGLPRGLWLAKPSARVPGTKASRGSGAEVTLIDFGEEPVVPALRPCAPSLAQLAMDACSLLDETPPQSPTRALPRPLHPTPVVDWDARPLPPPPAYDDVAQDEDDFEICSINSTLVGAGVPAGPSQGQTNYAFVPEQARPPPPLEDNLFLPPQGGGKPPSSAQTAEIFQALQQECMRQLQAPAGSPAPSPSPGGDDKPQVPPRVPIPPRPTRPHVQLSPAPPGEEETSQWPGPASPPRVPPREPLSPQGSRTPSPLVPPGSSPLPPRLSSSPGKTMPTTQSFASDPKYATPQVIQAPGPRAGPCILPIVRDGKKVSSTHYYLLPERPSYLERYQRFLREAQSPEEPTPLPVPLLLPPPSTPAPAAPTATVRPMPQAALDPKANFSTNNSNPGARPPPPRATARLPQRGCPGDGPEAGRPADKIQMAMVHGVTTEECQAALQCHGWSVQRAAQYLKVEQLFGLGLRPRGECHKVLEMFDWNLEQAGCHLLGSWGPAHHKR
Chain of panel of more than 300 wild-type and mutant kinases (313 kinase panel) (Homo sapiens, UniProt P16234, V561D) (P16234 24-1089 V561D): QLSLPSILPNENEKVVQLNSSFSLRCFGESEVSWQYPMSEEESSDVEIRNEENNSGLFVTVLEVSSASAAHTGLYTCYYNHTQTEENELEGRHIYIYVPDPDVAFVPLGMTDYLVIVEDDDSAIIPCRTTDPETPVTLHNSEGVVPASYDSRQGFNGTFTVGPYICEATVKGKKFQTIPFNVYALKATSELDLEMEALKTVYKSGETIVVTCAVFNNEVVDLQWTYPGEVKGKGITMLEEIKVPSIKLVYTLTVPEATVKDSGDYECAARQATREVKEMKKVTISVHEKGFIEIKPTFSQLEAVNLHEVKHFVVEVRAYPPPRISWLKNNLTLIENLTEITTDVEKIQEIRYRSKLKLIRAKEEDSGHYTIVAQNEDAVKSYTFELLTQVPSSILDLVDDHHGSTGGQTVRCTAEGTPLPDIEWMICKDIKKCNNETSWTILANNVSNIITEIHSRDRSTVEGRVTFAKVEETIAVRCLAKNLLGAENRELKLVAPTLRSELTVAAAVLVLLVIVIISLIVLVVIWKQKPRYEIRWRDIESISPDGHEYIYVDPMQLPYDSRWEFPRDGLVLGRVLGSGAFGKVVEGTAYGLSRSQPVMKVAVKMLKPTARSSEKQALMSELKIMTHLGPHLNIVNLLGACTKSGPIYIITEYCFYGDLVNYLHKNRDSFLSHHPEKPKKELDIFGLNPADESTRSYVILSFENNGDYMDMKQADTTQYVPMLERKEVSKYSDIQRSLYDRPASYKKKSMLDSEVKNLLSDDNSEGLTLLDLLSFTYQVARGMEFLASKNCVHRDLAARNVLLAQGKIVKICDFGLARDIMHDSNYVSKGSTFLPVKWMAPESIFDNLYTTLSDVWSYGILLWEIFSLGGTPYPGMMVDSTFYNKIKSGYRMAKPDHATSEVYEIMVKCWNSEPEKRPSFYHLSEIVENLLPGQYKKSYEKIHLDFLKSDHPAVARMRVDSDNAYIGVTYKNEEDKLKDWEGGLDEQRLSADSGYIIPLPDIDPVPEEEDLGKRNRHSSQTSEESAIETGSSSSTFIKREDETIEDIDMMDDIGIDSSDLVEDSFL
Chain of panel of more than 300 wild-type and mutant kinases (313 kinase panel) (Homo sapiens, UniProt P30291) (P30291 whole entry, change not shown): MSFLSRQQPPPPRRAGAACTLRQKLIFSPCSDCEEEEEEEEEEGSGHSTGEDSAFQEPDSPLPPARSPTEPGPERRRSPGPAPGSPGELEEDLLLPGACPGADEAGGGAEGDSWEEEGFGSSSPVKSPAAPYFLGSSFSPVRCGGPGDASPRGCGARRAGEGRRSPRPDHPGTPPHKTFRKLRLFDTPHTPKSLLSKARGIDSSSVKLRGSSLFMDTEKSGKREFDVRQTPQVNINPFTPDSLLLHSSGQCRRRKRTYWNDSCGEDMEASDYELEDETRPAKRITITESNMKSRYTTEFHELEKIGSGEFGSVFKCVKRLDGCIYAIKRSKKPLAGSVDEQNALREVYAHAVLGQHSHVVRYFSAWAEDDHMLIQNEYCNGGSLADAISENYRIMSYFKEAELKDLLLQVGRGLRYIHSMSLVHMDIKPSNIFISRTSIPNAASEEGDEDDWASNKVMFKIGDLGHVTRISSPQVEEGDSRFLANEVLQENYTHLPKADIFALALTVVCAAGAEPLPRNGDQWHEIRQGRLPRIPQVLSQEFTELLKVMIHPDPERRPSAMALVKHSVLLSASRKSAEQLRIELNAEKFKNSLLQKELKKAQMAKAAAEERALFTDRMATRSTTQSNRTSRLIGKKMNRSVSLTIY
Chain of panel of more than 300 wild-type and mutant kinases (313 kinase panel) (Homo sapiens, UniProt Q16644) (Q16644 whole entry, change not shown): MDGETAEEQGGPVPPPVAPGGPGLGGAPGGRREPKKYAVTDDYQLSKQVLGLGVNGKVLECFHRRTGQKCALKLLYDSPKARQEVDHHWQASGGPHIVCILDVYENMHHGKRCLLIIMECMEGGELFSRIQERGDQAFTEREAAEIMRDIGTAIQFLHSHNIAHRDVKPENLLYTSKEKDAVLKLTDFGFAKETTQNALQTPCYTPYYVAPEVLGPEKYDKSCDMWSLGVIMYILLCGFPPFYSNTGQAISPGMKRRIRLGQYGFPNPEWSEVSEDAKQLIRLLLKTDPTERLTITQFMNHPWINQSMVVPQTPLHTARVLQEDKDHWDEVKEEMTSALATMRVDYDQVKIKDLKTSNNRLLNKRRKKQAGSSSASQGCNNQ

`CCCS(=O)(=O)Nc1ccc(F)c(C(=O)c2c[nH]c3ncc(-c4ccc(Cl)cc4)cc23)c1F` [vemurafenib]: the “%-inhibition of ROCK2” value in assay [1] is reported as -0.177%. Besides, in assay [2], the “%-inhibition of PDGFRα(V561D)” value is 56%. In addition, the “%-inhibition of WEE1” value in assay [3] is listed as -1.64%. Further, the “%-inhibition of EPHB4” value in assay [4] was 3.73%. The “%-inhibition, ACK” value in assay [5] is given as 40%. The “%-inhibition of MAPKAPK3” value in assay [6] came out at 12%. For the same molecule, the “%-inhibition of SPHK1” value in assay [7] is -11%.
